Data set [1] can be described thus: Stability assay of crystalline form (influential factors). It is filed as physicochemical. As to the method:
1.1. Preparation of Samples
500 mg of the crystalline form A of the compound of formula I prepared in Example 2 was placed in a dry and clean container, and evenly spread in a thin layer as the test sample. The sample was completely exposed to experimental conditions of influential factors (40° C., 60° C., 75% RH, 92.5% RH, high temperature and high humidity (40° C., 75% RH)). Samples were taken for analysis on day 10. The samples were completely exposed to illumination (visible light of 1,200,000 Lux·hr, UV of 216 W·hr/m^2) at room temperature.
1.2. Chromatographic Conditions
Chromatographic column: Waters XBridge Shield RP18 (4.6 mm×150 mm, 3.5 μm).
The water content was measured by a Mettler V20 system.
1.3. Preparation of Sample Solution
About 12.5 mg of the sample was dissolved with an appropriate amount of a mixed diluent of acetonitrile-water (70:30) for content assay of related substance.

Data set [2] deals with HepG2.2.15 cells. Briefly: In vitro cytotoxicity (CCK-8). It is filed as cell-based. The following applies: 6 days treatment. As to the method:
2.2. In Vitro Cytotoxicity
A vial of HepG2.2.15 cells (Wuhan Institute of Virology) in good condition and at logarithmic growth phase was washed once with 5 mL of PBS. 2 mL of pancreatin was added. The cells were incubated in a cell incubator for digestion, and observed at times under a microscope. 1 mL of pancreatin was discarded when the cells just fell off, leaving the residual liquid only. The cells were further incubated in the incubator at 37° C. for 8-15 min of digestion and observed under a microscope (whether the cells are round in shape, and whether the cells are separated or adhered). 5 mL of MEM medium was added for cell resuspension. The cell suspension was loaded on a cell counter for counting, and diluted with the complete medium to adjust the cell density to 2×10^5 cells/mL. The cells were seeded on a 96-well plate (pre-coated with 50 μg/mL Collagen I solution) at 100 μL/well using a multi-channel pipette and cultured in a thermostatic CO2 incubator for 24 h. The compound was added, and the medium containing the compound was refreshed every 3 days. A medium containing 0.5% of DMSO but no compound was added to the control wells, and control wells of basal medium were set. After 6 days of treatment, CCK-8 was added at 10 μL/well, and after 1-2 h, the absorbance at 450 nm was measured with a plate reader. The inhibition rate and CC50 were calculated.

Data set [3] is described as follows: Plasma protein binding assay, mouse plasma. It is filed as in vitro ADME. As to the method:
(§1) 2.4. Plasma Protein Binding Assay
(§2) Preparation of plasma samples: 5 μL of test compound solution or positive control was added to 495 μL of blank plasma of various species (mouse, rat, dog, monkey and human) to obtain plasma sample solutions at plasma concentrations of 1 μM and 10 μM (in acetonitrile).
(§3) The pretreated dialysis membrane was loaded on a high-throughput equilibrium dialysis system. 100 μL of the plasma sample solution and PBS buffer were added to the two sides (sample side and buffer side) of the dialysis membrane respectively (n=3). The system was sealed with a patch and incubated at 37° C. overnight (100 rpm) to achieve dialysis equilibrium. 50 μL samples were taken from the sample side and the buffer side, and the reaction was terminated with glacial acetonitrile containing an internal standard.
(§4) Sample pretreatment: 450 μL of glacial acetonitrile containing an internal standard was added to 50 μL of the sample from the plasma side for precipitation. The mixture was vortexed for 5 min, and centrifuged (12000 rpm, 4° C.) for 10 min. 75 μL of supernatant was taken and diluted with 75 μL of ultrapure water. After being mixed well, 1 μL of the resulting sample was injected for analysis; 250 μL of glacial acetonitrile containing an internal standard was added to 50 μL of the sample from the PBS side for precipitation. […]

Data set [4] is described as follows: Plasma protein binding assay, dog plasma. It is filed as in vitro ADME. As to the method:
as §1, §2, §3, §4

Data set [5] has as its system HBV DNA in HepG2.2.15 cells. Nature of the data set: In-vitro inhibitory activity against HBV DNA in HepG2.2.15 cells. It is filed as cell-based. The following applies: Hepatitis B virus, 144 h, 6 days treatment, intracellular capsid HBV DNA by qPCR, read-out: EC50, anti-HBV activity. As to the method: (§5) 2.1. In-vitro Inhibitory Activity Against HBV DNA in Cells
(§6) A vial of HepG2.2.15 cells (Wuhan Institute of Virology) or HepAD38 cells in good condition and at logarithmic growth phase was washed once with 5 mL of PBS. 3 mL of pancreatin was added. The cells were digested at room temperature for 5 min, then 2 mL of pancreatin was discarded. The cells were further digested in a cell incubator for 10 min, and observed under a microscope (whether the cells are round in shape, and whether the cells are separated or adhered). 10 mL of complete medium was added to terminate the digestion. The cells was mixed using a pipette to obtain a single cell suspension. 10 μL of the cell suspension was loaded on a cell counter for counting, and diluted with the complete medium to adjust the cell density to 1×10^5 cells/mL. The cells were seeded on a 24-well plate (pre-coated with 50 μg/mL Collagen I solution) at 1 mL/well using a multi-channel pipette and cultured in a thermostatic CO2 incubator for 48 h.
(§7) A solution of the compound dissolved in DMSO was diluted to 10 concentrations in a 2-fold gradient using complete medium. […] HBV DNA in the intracellular viral capsid was measured by real-time fluorescent quantitative PCR. The inhibition rate was calculated according to the Ct value, and the EC50 value was calculated by four-parameter fitting.
In general terms: In qPCR the cycle at which signal appears reflects the starting amount.

Data set [6] can be described thus: Pharmacokinetic (PK) study in rats. It is filed as in vivo. The following applies: SD rats, PO 10 mg/kg vs IV 5 mg/kg. As to the method:
Pharmacokinetic (PK) Study in Rats […]
The animals to be tested (SD rats) were fasted for 12 h before administration and fed 4 h after administration, and had free access to water before, after and during the experiment.
After administration, about 0.2 mL of blood was collected from the orbit at 0 min, 15 min, 30 min, 1 h, 2 h, 4 h, 6 h, 8 h, 10 h, 24 h, 30 h and 48 h. After anticoagulation with EDTA-K2, the blood samples were transferred to a centrifuge at 4° C. within 30 min and centrifuged at 4000 rpm for 10 min to separate the plasma. All the plasma samples were collected and immediately stored at −20° C. for testing.
50 μL of the plasma sample to be tested and standard curve sample were taken, and 500 μL of acetonitrile solution containing an internal standard (20 mg/mL diazepam) was added. The reaction system was shaken for 5 min and centrifuged at 12,000 rpm for 10 min. 75 μL of supernatant was taken and diluted with 75 μL of ultrapure water. After being mixed well, 1 μL of the resulting sample was taken for LC/MS/MS analysis.

A short description of data set [7]: In vitro stability in mouse liver microsomes. It is filed as in vitro ADME. As to the method:
(§8) Experimental Example 3. In Vitro Stability in Liver Microsome A final incubation system of 300 μL contained 30 μL of liver microsomes (protein concentration: 0.15 mg/mL, Corning), 30 μL of NADPH+MgCl2, 3 μL of substrate (in acetonitrile) and 237 μL of PBS. Samples were prepared in duplicate of 0.3 mL for each specie. For each tube, the 270 μL mixed solution of substrates and enzyme and the NADPH solution were separately pre-incubated at 37° C. for 5 min. The 30 μL mixed solution of NADPH+MgCl2 was added for reaction. 50-μL samples were taken at 0 min, 10 min, 30 min and 60 min, and 300 μL of glacial acetonitrile containing an internal standard was added to the samples to terminate the reaction. Sample pretreatment: 300 μL of glacial acetonitrile containing internal standard diazepam was added to 50 μL of the incubated sample for precipitation. The mixture was vortexed for 5 min, and centrifuged (12000 rpm, 4° C.) for 10 min. 75 μL of supernatant was added to a 96-well plate and diluted with 75 μL of ultrapure water. After being mixed well, 0.5 μL of the resulting sample was injected to a LC-MS/MS system for analysis.

The nature of data set [8]: Plasma protein binding assay, human plasma. It is filed as in vitro ADME. As to the method:
as §1, §2, §3, §4

Data set [9] relates to HBV DNA in HepAD38 cells. Briefly: In-vitro inhibitory activity against HBV DNA in HepAD38 cells. The following applies: Hepatitis B virus, 144 h, 6 days treatment, intracellular capsid HBV DNA by qPCR, read-out: EC50, anti-HBV activity. It is filed as cell-based. As to the method:
as §5, §6, §7

The nature of data set [10]: Plasma protein binding assay, rat plasma. It is filed as in vitro ADME. As to the method:
as §1, §2, §3, §4

The nature of data set [11]: In vitro stability in rat liver microsomes. It is filed as in vitro ADME. As to the method:
as §8

A short description of data set [12]: In vitro stability in human liver microsomes. It is filed as in vitro ADME. As to the method:
as §8
In general terms: Liver microsomes are vesicles of endoplasmic reticulum, rich in cytochrome P450 enzymes.

Data set [13] can be described thus: Plasma protein binding assay, monkey plasma. It is filed as in vitro ADME. As to the method:
as §1, §2, §3, §4

[14] abbreviates: High humidity (75% RH), 10 days.
The mark [15] stands for this setting: High humidity (92.5% RH), 10 days.
[16] abbreviates: High temperature (40° C.), 10 days.
Setting [17] is: High temperature (60° C.), 10 days.
Where [18] appears, read: High temperature and high humidity (40° C., 75% RH), 10 days.

This note sets out measurements from US12384745B2, “Crystal form of five-membered n heterocyclic compound, and application thereof” (CHIA TAI TIANQING PHARMACEUTICAL GROUP CO., LTD., priority 2019, dated 2025).

As to `Cc1[nH]c(C(=O)C(=O)N[C@@H](C)C(F)(F)F)c(C)c1C(=O)Nc1ccc(F)c(C#N)c1` [(S)-N-(3-cyano-4-fluorophenyl)-2,4-dimethyl-5-(2-oxo-2-((1,1,1-trifluoropropan-2-yl)amino)acetyl)-1H-pyrrol-3-formamide], the “Related substance (total impurities)” value in [1] (Day 0) is 0.57%; in data set [1] (setting [14]), 0.63%; in data set [1] (setting [15]), 0.65%; in [1] (setting [16]), 0.65%; in data set [1] (setting [17]), 0.65%; in [1] (setting [18]) it was 0.63%. Besides, the “Related substance (total impurities)” value in data set [1] (Illumination, 10 days) turned out to be 0.64%. The Water in data set [1] (Day 0) is 0.13%; in data set [1] (setting [14]), 0.15%; in data set [1] (setting [15]) it was 0.17%; in data set [1] (setting [16]), 0.17%; in data set [1] (setting [17]) it was 0.16%; in data set [1] (setting [18]), 0.16%. The Water in [1] (Illumination, 10 days) came out at 0.16%. Moreover, the “Stability at high humidity, at high temperature or under illumination” value in [1] (summary of Table 2) is reported as “good stability”.
For `Cc1[nH]c(C(=O)C(=O)N[C@@H](C)C(F)(F)F)c(C)c1C(=O)Nc1ccc(F)c(C#N)c1` [Compound of formula I, (S)-N-(3-cyano-4-fluorophenyl)-2,4-dimethyl-5-(2-oxo-2-((1,1,1-trifluoropropan-2-yl)amino)acetyl)-1H-pyrrol-3-formamide], the 50% cytotoxic concentration (CC50) – broadly, the concentration that lowers cell viability or growth by half – in [2] was greater than 100 µM. Also, the Binding rate in data set [3] (1 μM) came to 85.4%; in data set [3] (10 μM), 85.5%; in [4] (1 μM), 94.0%; in data set [4] (10 μM) it was 93.9%; in data set [8] (1 μM), 97.3%; in data set [8] (10 μM) it was 97.3%. The Binding rate is recorded as 95.0% in data set [10] (1 μM), 95.3% in data set [10] (10 μM), 90.2% in data set [13] (1 μM) and 90.5% in data set [13] (10 μM). In addition, the values for the EC50 in data set [5] and in data set [9] were 17.4 nM and 24 nM, respectively. The F in [6] worked out at 100%. The “Mouse liver microsomes Residual content after 60 min” value in data set [7] is 96%. In data set [11], the “Rat liver microsomes Residual content after 60 min” value was 99%. Further, in data set [12], the “Human liver microsomes Residual content after 60 min” value turned out to be 99%.
